Measurements reported in ChEMBL document CHEMBL4828714, “Mutasynthesis of Antibacterial Halogenated Actinomycin Analogues” (J Nat Prod, 2021).
≈ marks a conversion by molar mass, not a printed value.

How the values were obtained:
Staphylococcus aureus [1] = assay: Antimicrobial activity against Staphylococcus aureus Sau 16162 assessed as inhibition of bacterial growth incubated for 16 to 18 hrs by broth micro dilution technique; type: functional; conditions: time 16-18 hrs
Staphylococcus aureus [2] = assay: Antimicrobial activity against Staphylococcus aureus Sau 6917 assessed as inhibition of bacterial growth incubated for 16 to 18 hrs by broth micro dilution technique; type: functional; conditions: time 16-18 hrs
Staphylococcus aureus [3] = assay: Antimicrobial activity against Staphylococcus aureus Sau 1862 assessed as inhibition of bacterial growth incubated for 16 to 18 hrs by broth micro dilution technique; type: functional; conditions: time 16-18 hrs
Staphylococcus aureus [4] = assay: Antimicrobial activity against Staphylococcus aureus Sau 991 assessed as inhibition of bacterial growth incubated for 16 to 18 hrs by broth micro dilution technique; type: functional; conditions: time 16-18 hrs
Staphylococcus aureus [5] = assay: Antimicrobial activity against Staphylococcus aureus Sau 718306 assessed as inhibition of bacterial growth incubated for 16 to 18 hrs by broth micro dilution technique; type: functional; conditions: time 16-18 hrs
Staphylococcus aureus [6] = assay: Antimicrobial activity against Staphylococcus aureus Sau 745524 assessed as inhibition of bacterial growth incubated for 16 to 18 hrs by broth micro dilution technique; type: functional; conditions: time 16-18 hrs
Staphylococcus aureus [7] = assay: Antimicrobial activity against Staphylococcus aureus CCAM 3090 assessed as inhibition of bacterial growth incubated for 16 to 18 hrs by broth micro dilution technique; type: functional; conditions: time 16-18 hrs
Staphylococcus aureus [8] = assay: Antimicrobial activity against Staphylococcus aureus ATCC 29213 assessed as inhibition of bacterial growth incubated for 16 to 18 hrs by broth micro dilution technique; type: functional; conditions: time 16-18 hrs
Micrococcus luteus = assay: Antimicrobial activity against Micrococcus luteus ML01 assessed as inhibition of bacterial growth incubated for 16 to 18 hrs by broth micro dilution technique; type: functional; conditions: time 16-18 hrs
Enterococcus faecium = assay: Antimicrobial activity against Enterococcus faecium ATCC 35682 assessed as inhibition of bacterial growth incubated for 16 to 18 hrs by broth micro dilution technique; type: functional; conditions: time 16-18 hrs
Enterococcus faecalis = assay: Antimicrobial activity against Enterococcus faecalis ATCC 29212 assessed as inhibition of bacterial growth incubated for 16 to 18 hrs by broth micro dilution technique; type: functional; conditions: time 16-18 hrs
Bacillus thuringiensis = assay: Antimicrobial activity against Bacillus thuringiensis BT01 assessed as inhibition of bacterial growth incubated for 16 to 18 hrs by broth micro dilution technique; type: functional; conditions: time 16-18 hrs
Candida albicans = assay: Antimicrobial activity against Candida albicans assessed as inhibition of bacterial growth incubated for 16 to 18 hrs by broth micro dilution technique; type: functional; conditions: time 16-18 hrs
HepG2 = assay: Cytotoxicity against human HepG2 cells assessed as growth inhibition incubated for 68 hrs by MTT assay; type: functional, cell-based; conditions: HepG2, 68 h
HeLa = assay: Cytotoxicity against human HeLa cells assessed as growth inhibition incubated for 68 hrs by MTT assay; type: functional, cell-based
HL-60 = assay: Cytotoxicity against human HL-60 cells assessed as growth inhibition incubated for 68 hrs by MTT assay; type: functional, cell-based; conditions: HL-60, 68 h
RKO = assay: Cytotoxicity against human RKO cells assessed as growth inhibition incubated for 68 hrs by MTT assay; type: functional, cell-based
A549 = assay: Cytotoxicity against human A549 cells assessed as growth inhibition incubated for 68 hrs by MTT assay; type: functional, cell-based; conditions: A549, 68 h
MCF7 = assay: Cytotoxicity against human MCF7 cells assessed as growth inhibition incubated for 68 hrs by MTT assay; type: functional, cell-based; conditions: MCF7, 68 h
L02 = assay: Cytotoxicity against human L02 cells assessed as growth inhibition incubated for 68 hrs by MTT assay; type: cell-based; conditions: L02, 68 h
BEAS-2B = assay: Cytotoxicity against human BEAS-2B cells assessed as growth inhibition incubated for 68 hrs by MTT assay; type: cell-based

MIC (Staphylococcus aureus [1]) [µg/mL]	MIC (Staphylococcus aureus [2]) [µg/mL]	MIC (Staphylococcus aureus [3]) [µg/mL]	MIC (Staphylococcus aureus [4]) [µg/mL]	MIC (Staphylococcus aureus [5]) [µg/mL]	MIC (Staphylococcus aureus [6]) [µg/mL]	MIC (Staphylococcus aureus [7]) [µg/mL]	MIC (Staphylococcus aureus [8]) [µg/mL]	MIC (Micrococcus luteus) [µg/mL]	MIC (Enterococcus faecium) [µg/mL]	MIC (Enterococcus faecalis) [µg/mL]	MIC (Bacillus thuringiensis) [µg/mL]	MIC (Candida albicans) [µg/mL]	Structure (SMILES)	IC50 (HepG2) [nM]	IC50 (HeLa) [nM]	IC50 (HL-60) [nM]	IC50 (RKO) [nM]	IC50 (A549) [nM]	IC50 (MCF7) [nM]	IC50 (L02) [nM]	other results
32 (≈ 22.8 µM)	32 (≈ 22.8 µM)	32 (≈ 22.8 µM)	32 (≈ 22.8 µM)	16 (≈ 11.4 µM)	32 (≈ 22.8 µM)	32 (≈ 22.8 µM)	32 (≈ 22.8 µM)	2 (≈ 1.43 µM)	4 (≈ 2.85 µM)	32 (≈ 22.8 µM)	4 (≈ 2.85 µM)	8 (≈ 5.71 µM)	CC(C)[C@H]1C(=O)O[C@H](C)[C@H](NC(=O)c2c3nc4c(C(=O)N[C@@H]5C(=O)N[C@H](C(C)C)C(=O)N6CCC[C@H]6C(=O)N(CO)CC(=O)N(C)[C@@H](C(C)C)C(=O)O[C@@H]5C)ccc(Br)c4oc-3c(Br)c(=O)c2N)C(=O)N[C@H](C(C)C)C(=O)N2CCC[C@H]2C(=O)N(C)CC(=O)N1C	> 50000	> 50000	> 50000	24600	37800	12800	13300	IC50 (BEAS-2B): 5800 nM
4 (≈ 2.7 µM)	4 (≈ 2.7 µM)	2 (≈ 1.35 µM)	2 (≈ 1.35 µM)	2 (≈ 1.35 µM)	2 (≈ 1.35 µM)	4 (≈ 2.7 µM)	4 (≈ 2.7 µM)	< 0.06	0.06 (≈ 0.0406 µM)	2 (≈ 1.35 µM)	0.13 (≈ 0.0879 µM)	0.13 (≈ 0.0879 µM)	CC(C)[C@H]1C(=O)O[C@H](C)[C@H](NC(=O)c2c3nc4c(C(=O)N[C@@H]5C(=O)N[C@H](C(C)C)C(=O)N6CCC[C@H]6C(=O)N(C)CC(=O)N(C)[C@@H](C(C)C)C(=O)O[C@@H]5C)ccc(I)c4oc-3c(I)c(=O)c2N)C(=O)N[C@H](C(C)C)C(=O)N2CCC[C@H]2C(=O)N(C)CC(=O)N1C	100	200	50	200	5000	1100	1500	IC50 (BEAS-2B): 500 nM
32 (≈ 25.4 µM)	16 (≈ 12.7 µM)	8 (≈ 6.34 µM)	8 (≈ 6.34 µM)	8 (≈ 6.34 µM)	8 (≈ 6.34 µM)	16 (≈ 12.7 µM)	16 (≈ 12.7 µM)	0.25 (≈ 0.198 µM)	2 (≈ 1.59 µM)	16 (≈ 12.7 µM)	4 (≈ 3.17 µM)	8 (≈ 6.34 µM)	CC(C)[C@H]1C(=O)O[C@H](C)[C@H](NC(=O)c2c3nc4c(C(=O)N[C@@H]5C(=O)N[C@H](C(C)C)C(=O)N6CCC[C@H]6C(=O)N(C)CC(=O)N(C)[C@@H](C(C)C)C(=O)O[C@@H]5C)cccc4oc-3c(Cl)c(=O)c2N)C(=O)N[C@H](C(C)C)C(=O)N2CCC[C@H]2C(=O)N(C)CC(=O)N1C								
16 (≈ 11.6 µM)	16 (≈ 11.6 µM)	8 (≈ 5.78 µM)	8 (≈ 5.78 µM)	8 (≈ 5.78 µM)	8 (≈ 5.78 µM)	8 (≈ 5.78 µM)	8 (≈ 5.78 µM)	< 0.06	0.13 (≈ 0.0939 µM)	16 (≈ 11.6 µM)	0.25 (≈ 0.18 µM)	16 (≈ 11.6 µM)	CC(C)[C@H]1C(=O)O[C@H](C)[C@H](NC(=O)c2c3nc4c(C(=O)N[C@@H]5C(=O)N[C@H](C(C)C)C(=O)N6CCC[C@H]6C(=O)N(C)CC(=O)N(C)[C@@H](C(C)C)C(=O)O[C@@H]5C)ccc(Br)c4oc-3c(Br)c(=O)c2N)C(=O)N[C@H](C(C)C)C(=O)N2CCC[C@H]2C(=O)N(C)CC(=O)N1C	2400	6200	40	1500	1100	1500	17600	IC50 (BEAS-2B): 2200 nM

Structure (SMILES)	MIC (Staphylococcus aureus [1]) [µg/mL]	MIC (Staphylococcus aureus [2]) [µg/mL]	MIC (Staphylococcus aureus [3]) [µg/mL]	MIC (Staphylococcus aureus [4]) [µg/mL]	MIC (Staphylococcus aureus [5]) [µg/mL]	MIC (Staphylococcus aureus [6]) [µg/mL]	MIC (Staphylococcus aureus [7]) [µg/mL]	MIC (Staphylococcus aureus [8]) [µg/mL]	MIC (Micrococcus luteus) [µg/mL]	MIC (Enterococcus faecium) [µg/mL]	MIC (Enterococcus faecalis) [µg/mL]	MIC (Bacillus thuringiensis) [µg/mL]	MIC (Candida albicans) [µg/mL]	IC50 (HepG2) [nM]	IC50 (HeLa) [nM]	IC50 (HL-60) [nM]	IC50 (RKO) [nM]	IC50 (A549) [nM]	IC50 (MCF7) [nM]	IC50 (L02) [nM]	other results
CC1(C)S[C@@H]2[C@H](NC(=O)[C@H](N)c3ccccc3)C(=O)N2[C@H]1C(=O)O [AMPICILLIN]	64 (≈ 183 µM)	8 (≈ 22.9 µM)	8 (≈ 22.9 µM)			2 (≈ 5.72 µM)	> 64	1 (≈ 2.86 µM)	0.13 (≈ 0.372 µM)	> 64	32 (≈ 91.6 µM)	2 (≈ 5.72 µM)	0.13 (≈ 0.372 µM)								
CN[C@H](CC(C)C)C(=O)N[C@H]1C(=O)N[C@@H](CC(N)=O)C(=O)N[C@H]2C(=O)N[C@H]3C(=O)N[C@H](C(=O)N[C@H](C(=O)O)c4cc(O)cc(O)c4-c4cc3ccc4O)[C@H](O)c3ccc(c(Cl)c3)Oc3cc2cc(c3O[C@@H]2O[C@H](CO)[C@@H](O)[C@H](O)[C@H]2O[C@H]2C[C@](C)(N)[C@H](O)[C@H](C)O2)Oc2ccc(cc2Cl)[C@H]1O [VANCOMYCIN]	64 (≈ 44.2 µM)						0.25 (≈ 0.173 µM)		0.25 (≈ 0.173 µM)	> 64	1 (≈ 0.69 µM)	4 (≈ 2.76 µM)	0.25 (≈ 0.173 µM)								
